Measured values as given in patent publication US20130131321A1, “LIGANDS FOR ANTIBODY AND Fc-FUSION PROTEIN PURIFICATION BY AFFINITY CHROMATOGRAPHY” (GRAFFINITY PHARMACEUTICALS GMBH, priority 2010, published 2013).
Read-outs that look alike come from different tables or passages of the source.

Experiments:
[1] = tested on: Tocilizumab; experiment: Microtiter plate chromatography of resins, Tocilizumab (bound, yield); type: binding, humanized
[2] = tested on: Bevacizumab; experiment: Microtiter plate chromatography of resins, Bevacizumab whole IgG (bound, yield, selectivity); type: binding, humanized
[3] = biological target: T1, Bevacizumab (Homo sapiens, UniProt P01857); experiment: as above; type: binding, humanized
T1 construct: fused on or other part: humanised anti-VEGF-A VH domain N-terminal of the gamma-1 constant region (engineered, no UniProt entry)

[4] = tested on: human poly-IgG (h-poly-IgG); experiment: Microtiter plate chromatography of resins, human poly-IgG (bound, yield); type: binding
[5] = tested on: Palivizumab; experiment: Microtiter plate chromatography of resins, Palivizumab (bound, yield); type: binding, humanized
[6] = tested on: host cell proteins (HCP); experiment: Microtiter plate chromatography of resins, host cell proteins (bound); type: binding, CHO
[7] = fraction of whole IgG Bevacizumab bound to resin
[8] = mass of whole IgG Bevacizumab eluted / mass injected
[9] = fraction of injected protein bound to resin
[10] = fraction of injected whole IgG bound to resin
[11] = mass eluted / mass injected, whole IgG
[12] = fraction of injected host cell proteins bound to resin
[13] = bound Bevacizumab whole IgG / bound HCP, truncated beyond values of 10

Structure (SMILES) | Tocilizumab Bound (%) [1] | Tocilizumab Yield (%) [1] | Selectivity [2] | Bevacizumab IgG Bound (%) [3, 7] | Bevacizumab IgG Yield (%) [3, 8] | h-poly-IgG Bound (%) [4] | h-poly-IgG Yield (%) [4] | Palivizumab Bound (%) [5] | Palivizumab Yield (%) [5] | HCP Bound (%) ([6]; host cell proteins) | further results
COc1ccc(NC(=O)c2cc(-c3ccco3)n(C)n2)cc1C(=O)N(C)CCCN [Ligand L28, 5-[5-(2-Furyl)-1-methylpyrazol-3-yl]carboxamido-2-methoxybenzoic acid N-(3-aminopropyl)-N-methylamide] | 63% | 61% | 2.9 | 100% | 81% | 58% | 44% | 55% | 50% | 35% | –
COc1ccc(NC(=O)c2cc(-c3ccccc3)n(C)n2)cc1C(=O)NCCCN [Ligand L15, 2-Methoxy-5-(1-methyl-5-phenylpyrazol-3-yl)carboxamidobenzoic acid N-(3-aminopropyl)amide] | 100% | 98% | 1.6 | 99% | 94% | 98% | 83% | 100% | 90% | 64% | –
COc1ccc(NC(=O)c2cn3ccccc3n2)cc1C(=O)NCCCN [Ligand L57, 5-(Imidazo[1,2-a]pyridin-2-ylcarboxamido)-2-methoxybenzoic acid (3-amino-1-propyl)amide] | 78% | 78% | 6.3 | 100% | 90% | 53% | 53% | 44% | 42% | 16% | –
NCCCNC(=O)c1cccc(C(=O)Nc2cc(-c3ccco3)[nH]n2)c1 [Ligand L21, 3-{N-[5-(2-Furyl)pyrazol-3-yl]carbamoyl}benzoic acid N′-(3-aminopropyl)amide] | 52% | 53% | 2.0 | 99% | 95% | 54% | 61% | 26% | 26% | 50% | –
CCn1nc(C(=O)Nc2ccc(OC)c(C(=O)NCCCN)c2)c2ccccc21 [Ligand L38, 5-(1-Ethylindazol-3-ylcarboxamido)-2-methoxybenzoic acid (3-amino-1-propyl)amide] | 100% | 99% | 2.2 | 100% | 100% | 100% | 99% | 91% | 79% | 45% | –
COc1ccc(NC(=O)c2cn3ccsc3n2)cc1C(=O)NCCCNC(=O)CCCCCN [Ligand L75, 5-(Imidazo[2,1-b]thiazol-6-ylcarboxamido)-2-methoxybenzoic acid [3-(6-aminohexanoylamido)-1-propyl]amide] | – | – | 5.7 | – | – | – | – | – | – | – | Tocilizumab Bound (%) [1, 9]: 100%; Tocilizumab Yield (%) ([1]; mass eluted / mass injected): 98%; Bevacizumab IgG Bound (%) [3, 10]: 100%; Bevacizumab IgG Yield (%) [3, 11]: 97%; h-poly-IgG Bound (%) [4, 9]: 90%; h-poly-IgG Yield (%) ([4]; mass eluted / mass injected): 90%; Palivizumab Bound (%) [5, 9]: 91%; Palivizumab Yield (%) ([5]; mass eluted / mass injected): 91%; HCP Bound (%) [6, 12]: 18%
COc1ccc(NC(=O)c2nn(CCO)c3ccccc23)cc1C(=O)NCCCN [Ligand L59, 5-[1-(2-Hydroxyethyl)indazol-3-ylcarboxamido]-2-methoxybenzoic acid (3-amino-1-propyl)amide] | 89% | 89% | 3.1 | 100% | 97% | 71% | 71% | 64% | 64% | 32% | –
COc1ccc(NC(=O)c2occ3ccccc23)cc1C(=O)NCCCN [Ligand L32, 5-(Benzo[c]furan-1-yl)carboxamido-2-methoxybenzoic acid N-(3-aminopropyl)amide] | 100% | 95% | 2.0 | 100% | 87% | 95% | 74% | 100% | 95% | 49% | –
COc1ccc(NC(=O)c2cn3ccsc3n2)cc1C(=O)NCCOCCOCC(=O)NCCCN [Ligand L77, 8-[5-(Imidazo-[2,1-b]thiazol-6-ylcarboxamido)-2-methoxyphenylcarboxamido]-3,6-dioxaoctanoic acid (3-amino-1-propyl)amide] | – | – | – | – | – | – | – | – | – | – | Tocilizumab Bound (%) [1, 9]: 80%; Tocilizumab Yield (%) ([1]; mass eluted / mass injected): 80%; Selectivity [2, 13]: 10.0; Bevacizumab IgG Bound (%) [3, 10]: 100%; Bevacizumab IgG Yield (%) [3, 11]: 96%; h-poly-IgG Bound (%) [4, 9]: 65%; h-poly-IgG Yield (%) ([4]; mass eluted / mass injected): 65%; Palivizumab Bound (%) [5, 9]: 55%; Palivizumab Yield (%) ([5]; mass eluted / mass injected): 55%; HCP Bound (%) [6, 12]: 10%
COc1ccc(NC(=O)c2cc(-c3cccn3C)n(C)n2)cc1C(=O)NCCCN [Ligand L16, 2-Methoxy-5-[5-(1-methyl-2-pyrrolyl)-1-methylpyrazol-3-yl]carboxamidobenzoic acid N-(3-aminopropyl)amide] | 100% | 96% | 2.0 | 100% | 93% | 96% | 83% | 100% | 90% | 51% | –
COc1ccc(NC(=O)c2cn3ccsc3n2)cc1C(=O)NCCCN [Ligand L37, 5-(Imidazo[2,1-b]thiazol-6-yl)carboxamido-2-methoxybenzoic acid N-(3-aminopropyl)amide] | 99% | 95% | 3.4 | 100% | 92% | 94% | 70% | 92% | 87% | 29% | selectivity index ([2]; fraction of bound Bevacizumab whole IgG divided by fraction of bound HCP, truncated beyond 10): 3.4
Cc1ccc(C(=O)NCCCN)cc1NC(=O)c1cc(-c2cccs2)n(C)n1 [Ligand L10, 4-Methyl-3-[1-methyl-5-(2-thienyl)pyrazol-3-yl]carboxamidobenzoic acid N-(3-aminopropyl)amide] | 86% | 73% | 1.5 | 100% | 91% | 72% | 60% | 59% | 62% | 68% | –
COc1ccc(NC(=O)c2cc(-c3csc(C)n3)on2)cc1C(=O)NCCOCCOCC(=O)NCCOCCOCC(=O)NCCCN [Ligand L68, 8-{8-{2-Methoxy-5-[5-(2-methylthiazol-4-yl)isoxazol-3-ylcarboxamido]phenylcarboxamido}-3,6-dioxaoctanoylamido}-3,6-dioxaoctanoic acid (3-amino-1-propyl)amide] | – | – | – | – | – | – | – | – | – | – | Tocilizumab Bound (%) [1, 9]: 71%; Tocilizumab Yield (%) ([1]; mass eluted / mass injected): 71%; Selectivity [2, 13]: 10.0; Bevacizumab IgG Bound (%) [3, 10]: 100%; Bevacizumab IgG Yield (%) [3, 11]: 100%; h-poly-IgG Bound (%) [4, 9]: 65%; h-poly-IgG Yield (%) ([4]; mass eluted / mass injected): 65%; Palivizumab Bound (%) [5, 9]: 65%; Palivizumab Yield (%) ([5]; mass eluted / mass injected): 65%; HCP Bound (%) [6, 12]: 4%
COc1ccc(NC(=O)c2cc3ncccn3n2)cc1C(=O)NCCCN [Ligand L56, 2-Methoxy-5-(pyrazolo[1,5-a]pyrimidin-2-ylcarboxamido)benzoic acid (3-amino-1-propyl)amide] | 95% | 95% | 4.9 | 100% | 95% | 83% | 83% | 81% | 79% | 21% | –
COc1ccc(NC(=O)c2cncc(-c3cc4ccccc4s3)c2)cc1C(=O)NCCCN [Ligand L14, 5-[3-(2-Benzothienyl)pyridin-5-yl]carboxamido-2-methoxybenzoic acid N-(3-aminopropyl)amide] | 82% | 74% | 1.3 | 99% | 89% | 73% | 62% | 66% | 61% | 74% | –
COc1ccc(NC(=O)c2nc3ccccc3[nH]2)cc1C(=O)NCCCN [Ligand L47, 5-(1H-Benzimidazol-2-ylcarboxamido)-2-methoxybenzoic acid (3-amino-1-propyl)amide] | 100% | 100% | 2.9 | 100% | 97% | 71% | 65% | 85% | 85% | 35% | –
